Consider nine compounds from US12599672B2, “KRAS proteolysis targeting chimeras” (PAQ Therapeutics Inc., priority 2023, dated 2026).

Where only a bound is given, the exact number is not on record here.

What all share (type): cell-based
For test [1], the target named is T1, KRAS (Homo sapiens, UniProt P01116).
T1 construct: endogenous in cells; host or cells: KE39 (KRAS amplified) cells
The test is described as follows: KRASamp MSD assay. The note with it: KE39 (KRAS amplified) cells, treated with test compounds for 24 hr, MSD readout of KRAS degradation. As to the method:
KE39 (KRAS amplified) cells were cultured in RPMI 1640 medium (Gibco, 11875093), seeded into 96 well plate and treated with test compounds for 24 hr. The cells were washed with PBS and lysed in plate for 1 hr at 4° C. with agitation in RIPA buffer (Cat No. BP-115D) supplemented with protease and phosphatase inhibitor cocktail. The lysates were loaded into MSD plate coated with KRAS capture antibody (LSBio, C175665, 1:1000) for 1 h at RT with agitation. The plate was then washed three times with TBST and incubated with KRAS detection antibody (Abcam, Ab275876. 1:2000) for 1 h at RT. After washing three times with TBST, the plate was incubated with secondary detection antibody GAR (1:500) for 1 hr at RT followed with 3×TBST washing. 2×MSD reading buffer was added into individual wells and the plate was finally read by MSD reader (MSD, SQ 120 MM). The recombinant WT KRAS protein was used for standard curve generation and protein quantification. The degradation activity was calculated using the following formula: […]
DC50 was calculated by fitting the curve using GraphPad Prism v8.0.2 (analysis 263): […]

Test [2] deals with T2, KRAS G12V (Homo sapiens, UniProt P01116, G12V).
T2 construct: SW620-KRAS (G12V)-HiBit-KI cell (Pharmaron); host or cells: SW620-KRAS (G12V)-HiBit-KI cells (HiBiT knock-in at the endogenous KRAS locus)
T2 sequence (P01116 1-188 isoform P01116-2 G12V): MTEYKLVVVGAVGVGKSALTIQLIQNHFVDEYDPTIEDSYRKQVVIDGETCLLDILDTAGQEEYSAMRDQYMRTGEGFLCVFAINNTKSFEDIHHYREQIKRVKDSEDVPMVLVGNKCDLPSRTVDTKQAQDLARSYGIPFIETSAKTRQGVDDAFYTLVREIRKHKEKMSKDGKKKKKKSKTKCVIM
The test is described as follows: KRAS G12V HiBit assay. As to conditions: SW620-KRAS (G12V)-HiBit-KI cells, compound treatment for 24 hours, class symbols. A digest of the protocol: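 HiBiT-tagged KRAS G12V cells treated 24 h with compound in a 3-fold, 10-point series (0.3 mM DMSO stock); lytic HiBiT reagent with LgBiT added after 15 min room-temperature equilibration. Degradation calculated against 0.1% DMSO high control.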

The target in test [3] is T3, KRAS G12D (Homo sapiens, UniProt P01116, G12D).
T3 construct: AsPc-1-KRAS (G12D)-HiBit-KI cell (Pharmaron); host or cells: AsPc-1-KRAS (G12D)-HiBit-KI cells (HiBiT knock-in at the endogenous KRAS locus)
T3 sequence (P01116 1-188 isoform P01116-2 G12D): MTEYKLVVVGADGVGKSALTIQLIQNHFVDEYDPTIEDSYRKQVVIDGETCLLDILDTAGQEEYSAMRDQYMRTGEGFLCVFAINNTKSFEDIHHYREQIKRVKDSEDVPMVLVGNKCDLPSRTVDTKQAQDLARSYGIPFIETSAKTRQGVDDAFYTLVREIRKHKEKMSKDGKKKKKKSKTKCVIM
The test is described as follows: KRAS G12D HiBit assay. As to conditions: AsPc-1-KRAS (G12D)-HiBit-KI cell, compound treatment for 24 hours; for DC50: absolute DC50. A digest of the protocol: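 Cells were treated for 24 h with compounds in a 3-fold, 10-point dilution series from a 0.3 mM DMSO stock, then equilibrated 15 min at room temperature. KRAS G12D HiBiT levels were read by luminescence after lytic Nano-Glo HiBiT reagent with LgBiT; inhibition calculated relative to 0.1% DMSO high control.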
In general terms: HiBiT is a short tag that completes a luciferase, so light tracks the accessible tagged protein.

T1 sequence (P01116 1-188 isoform P01116-2): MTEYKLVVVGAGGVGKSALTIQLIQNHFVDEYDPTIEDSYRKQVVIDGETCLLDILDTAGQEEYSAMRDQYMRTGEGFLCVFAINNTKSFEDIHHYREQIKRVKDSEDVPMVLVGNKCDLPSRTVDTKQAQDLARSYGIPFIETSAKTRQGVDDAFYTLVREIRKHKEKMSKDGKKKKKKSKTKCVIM

For `CCc1c(F)ccc2cc(O)cc(-c3ncc4c(N5CCOCC(C)(O)C5)nc(OC[C@@]56CCCN5[C@H](COC(=O)N5CCC(CN7CCC(c8ccc9c(c8)n(C)c(=O)n9C8CCC(=O)NC8=O)CC7)CC5)CC6)nc4c3F)c12` (stereo partly drawn) [Compound 118, ((3S,7aS)-7a-(((7-(8-Ethyl-7-fluoro-3-hydroxynaphthalen-1-yl)-8-fluoro-4-(6-hydroxy-6-methyl-1,4-oxazepan-4-yl)pyrido[4,3-d]pyrimidin-2-yl)oxy)methyl)hexahydro-1H-pyrrolizin-3-yl)methyl4-((4-(1-(2,6-dioxopiperidin-3-yl)-3-methyl-2-oxo-2,3-dihydro-1H-benzo[d]imidazol-5-yl)piperidin-1-yl)methyl) piperidine-1-carboxylate], the DC50 in test [1] was below 1 nM; in test [2], below 10 nM; in test [3] (class symbols), below 100 nM.
Take `CCc1c(F)ccc2cc(O)cc(-c3ncc4c(N5CCC[C@@](C)(O)C5)nc(OC[C@]56CCCN5[C@H](COC(=O)N5CCC(Oc7ccc8c(c7)n(C)c(=O)n8C7CCC(=O)NC7=O)CC5)CC6)nc4c3F)c12` (stereo partly drawn) [Compound 330, ((3S,7aR)-7a-(((7-(8-ethyl-7-fluoro-3-hydroxynaphthalen-1-yl)-8-fluoro-4-((R)-3-hydroxy-3-methylpiperidin-1-yl)pyrido[4,3-d]pyrimidin-2-yl)oxy)methyl)hexahydro-1H-pyrrolizin-3-yl)methyl 4-((1-(2,6-dioxopiperidin-3-yl)-3-methyl-2-oxo-2,3-dihydro-1H-benzo[d]imidazol-5-yl)oxy)piperidine-1-carboxylate]: the DC50 was 1 to 10 nM in test [1], above 100 nM in test [2] and above 100 nM in test [3] (numeric bounds given in place of class symbols).
As to `CCc1c(F)ccc2cc(O)cc(-c3ncc4c(N5CCC[C@@](C)(O)C5)nc(OC[C@@]56CCCN5[C@H](COC(=O)N5CC7(CCN(CC#Cc8ccc9c(c8)n(C)c(=O)n9C8CCC(=O)NC8=O)CC7)C5)CC6)nc4c3F)c12` (stereo partly drawn) [Compound 453, ((3S,7aS)-7a-(((7-(8-Ethyl-7-fluoro-3-hydroxynaphthalen-1-yl)-8-fluoro-4-((R)-3-hydroxy-3-methylpiperidin-1-yl)pyrido[4,3-d]pyrimidin-2-yl)oxy)methyl)hexahydro-1H-pyrrolizin-3-yl)methyl 7-(3-(1-(2,6-dioxopiperidin-3-yl)-3-methyl-2-oxo-2,3-dihydro-1H-benzo[d]imidazol-5-yl)prop-2-yn-1-yl)-2,7-diazaspiro[3.5]nonane-2-carboxylate], the DC50 in test [1] was below 1 nM; in test [2], below 10 nM; in test [3] (class symbols), below 100 nM.
In the case of `CCc1c(F)ccc2cc(O)cc(-c3ncc4c(N5CCC[C@@](C)(O)C5)nc(OC[C@@]56CCCN5[C@H](COC(=O)N5CCC(CN7CCC(c8ccc9c(c8F)n(C)c(=O)n9C8CCC(=O)NC8=O)CC7)CC5)CC6)nc4c3F)c12` (stereo partly drawn) [Compound 96, [(3S,8S)-8-[[7-(8-Ethyl-7-fluoro-3-hydroxy-1-naphthyl)-8-fluoro-4-[(3R)-3-hydroxyl-3-methyl-1-piperidyl]pyrido[4,3-d]pyrimidin-2-yl]oxymethyl]-1,2,3,5,6,7-hexahydropyrrolizin-3-yl]methyl4-[[4-[1-(2,6-dioxo-3-piperidyl)-4-fluoro-3-methyl-2-oxo-benzimidazol-5-yl]-1-piperidyl]methyl]piperidine-1-carboxylate], the DC50 was below 1 nM in test [1], below 10 nM in test [2] and below 100 nM in test [3] (class symbols). The same compound showed a Dmax in test [3] (class symbols) above 50%.
Turning to `C#Cc1c(F)ccc2cccc(-c3ncc4c(N5CCC[C@@](C)(O)C5)nc(OCC5(CN6CC7(C6)CN(c6ccc8c(c6)n(C)c(=O)n8C6CCC(=O)NC6=O)C7)CC5)nc4c3F)c12` (some centres unmarked) [Compound 31], the results for the DC50 in test [1], in test [2] and in test [3] (class symbols) were at least 10 nM, above 100 nM and above 300 nM, respectively.
The like results for `C#Cc1c(F)ccc2cc(O)cc(-c3ncc4c(N5CCC[C@@](C)(O)C5)nc(OCC5(CN6CCC7(CC6)CC(N6CCN(c8cccc9c8n(C)c(=O)n9C8CCC(=O)NC8=O)CC6)C7)CC5)nc4c3F)c12` (some centres unmarked) [Compound 71] were, in that order, below 1 nM, below 10 nM and below 100 nM.
The corresponding values for `C#Cc1c(F)ccc2cc(O)cc(-c3ncc4c(N5CCC[C@@](C)(O)C5)nc(OC[C@@]56CCCN5[C@H](COC(=O)N5CCC(OCC#Cc7ccc8c(c7)n(C)c(=O)n8C7CCC(=O)NC7=O)CC5)CC6)nc4c3F)c12` (stereo partly drawn) [Compound 373, ((3S,7aS)-7a-(((7-(8-ethynyl-7-fluoro-3-hydroxynaphthalen-1-yl)-8-fluoro-4-((R)-3-hydroxy-3-methylpiperidin-1-yl)pyrido[4,3-d]pyrimidin-2-yl)oxy)methyl)hexahydro-1H-pyrrolizin-3-yl)methyl 4-((3-(1-(2,6-dioxopiperidin-3-yl)-3-methyl-2-oxo-2,3-dihydro-1H-benzo[d]imidazol-5-yl)prop-2-yn-1-yl)oxy)piperidine-1-carboxylate] are 1 to 10 nM, below 10 nM and below 100 nM.
The like results for `C#Cc1c(F)ccc2cc(O)cc(-c3ncc4c(N5CCC[C@@](C)(O)C5)nc(OC[C@@]56CCCN5[C@H](COC(=O)N5CC7(CC(CN8CCC(c9ccc%10c(c9)n(C)c(=O)n%10C9CCC(=O)NC9=O)CC8)C7)C5)CC6)nc4c3F)c12` (stereo partly drawn) [Compound 418, ((3S,7aS)-7a-(((7-(8-ethynyl-7-fluoro-3-hydroxynaphthalen-1-yl)-8-fluoro-4-((R)-3-hydroxy-3-methylpiperidin-1-yl)pyrido[4,3-d]pyrimidin-2-yl)oxy)methyl)hexahydro-1H-pyrrolizin-3-yl)methyl 6-((4-(1-(2,6-dioxopiperidin-3-yl)-3-methyl-2-oxo-2,3-dihydro-1H-benzo[d]imidazol-5-yl)piperidin-1-yl)methyl)-2-azaspiro[3.3]heptane-2-carboxylate] were, in that order, 1 to 10 nM, below 10 nM and below 100 nM.
Turning to `C#Cc1c(F)ccc2cc(O)cc(-c3ncc4c(N5CCCC(F)(F)C5)nc(OC[C@@]56CCCN5[C@H](COC(=O)N5CCC(CN7CCC(c8ccc9c(c8)n(C)c(=O)n9C8CCC(=O)NC8=O)CC7)CC5)CC6)nc4c3F)c12` (stereo partly drawn) [Compound 124, ((35,7aS)-7a-(((4-(3,3-Difluoropiperidin-1-yl)-7-(8-ethynyl-7-fluoro-3-hydroxynaphthalen-1-yl)-8-fluoropyrido[4,3-d]pyrimidin-2-yl)oxy)methyl)hexahydro-1H-pyrrolizin-3-yl)methyl4-((4-(1-(2,6-dioxopiperidin-3-yl)-3-methyl-2-oxo-2,3-dihydro-1H-benzo[d]imidazol-5-yl)piperidin-1-yl)methyl) piperidine-1-carboxylate], the DC50 in test [1] is below 1 nM; in test [2] it was below 10 nM; in test [3] (class symbols), below 100 nM. This compound registered a Dmax in test [3] (class symbols) above 50%.
